Assays:
Format in all cases: in vivo
[1] = test system: barnyardgrass (Echinochloa crus-galli); assay: Test B flooded paddy test, plant response rating 0-100; conditions: Flood, 250 g ai/ha; scale 0 to 100 (0 no effect, 100 complete control); 13 to 15 days
Procedure, shortened: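 Test compounds are applied straight into paddy water held 3 cm above the soil surface, with that flood maintained for the whole test. After 13 to 15 days in the greenhouse, each species is scored visually relative to controls.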

[2] = test system: sandbur (southern sandbur, Cenchrus echinatus); assay: Test E pre-/postemergence greenhouse test, plant response rating 0-100; conditions: scale 0 to 100; for Plant response rating, Sandbur: Postemergence; for Sandbur plant response rating: Preemergence
Procedure, shortened: (§1)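 Pre: seeded silt loam sprayed; post: 1–4-leaf plants (2–18 cm) in peat-based mix sprayed. Formulation: non-phytotoxic solvent + surfactant. Greenhouse 14–21 d; visual rating vs controls, 0 = no effect, 100 = complete control.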

[3] = test system: Brazilian crabgrass (Digitaria horizontalis); assay: as above; conditions: scale 0 to 100; for Plant response rating, Crabgrass, Brazil: Postemergence; for Crabgrass, Brazil plant response rating: Preemergence
Procedure, shortened: as §1

[4] = test system: wild poinsettia (Euphorbia heterophylla); assay: as above; conditions: scale 0 to 100; for Plant response rating, Poinsettia, Wild: Postemergence; for Poinsettia, Wild plant response rating: Preemergence
Procedure, shortened: as §1

[5] = test system: fall panicum (Panicum dichotomiflorum); assay: as above; conditions: scale 0 to 100; for Plant response rating, Panicum, Fall: Postemergence; for Panicum, Fall plant response rating: Preemergence
Procedure, shortened: as §1

[6] = test system: palmer pigweed (Amaranthus palmeri); assay: as above; conditions: scale 0 to 100; for Plant response rating, Pigweed, Palmer: Postemergence; for Pigweed, Palmer plant response rating: Preemergence
Procedure, shortened: as §1

[7] = test system: dayflower (Virginia (VA) dayflower, Commelina virginica); assay: as above; conditions: scale 0 to 100; for Plant response rating, Dayflower, VA: Postemergence; for Dayflower, VA plant response rating: Preemergence
Procedure, shortened: as §1

corn (Zea mays) = assay: as above; conditions: scale 0 to 100; for Plant response rating, Corn: Postemergence; for Corn plant response rating: Preemergence
Procedure, shortened: as §1

[8] = test system: Italian ryegrass (Lolium multiflorum); assay: as above; conditions: scale 0 to 100; for Plant response rating, Ryegrass, Italian: Postemergence; for Ryegrass, Italian plant response rating: Preemergence
Procedure, shortened: as §1

[9] = test system: barnyardgrass (Echinochloa crus-galli); assay: as above; conditions: scale 0 to 100; for Plant response rating, Barnyardgrass: Postemergence; for Barnyardgrass plant response rating: Preemergence
Procedure, shortened: as §1

[10] = test system: arrowleaf sida (Sida rhombifolia); assay: as above; conditions: for Plant response rating, Arrowleaf Sida: Postemergence; for Arrowleaf Sida plant response rating: Preemergence
Procedure, shortened: as §1

[11] = test system: hairy beggarticks (Bidens pilosa); assay: as above; conditions: scale 0 to 100; for Plant response rating, Beggarticks: Postemergence; for Beggarticks plant response rating: Preemergence
Procedure, shortened: as §1

Structure (SMILES): O=Cn1cc(C(=O)c2ccccc2)c(-c2cc(Cl)cc(Cl)c2)n1 [Compound 28]
- Plant response rating, Barnyardgrass [1]: 0
- Plant response rating, Sandbur ([2]; 31 g ai/ha): 0
- Plant response rating, Sandbur ([2]; 62 g ai/ha): 0
- Plant response rating, Sandbur ([2]; 125 g ai/ha): 0
- Plant response rating, Sandbur ([2]; 250 g ai/ha): 0
- Plant response rating, Sandbur ([2]; 500 g ai/ha): 0
- Sandbur plant response rating ([2]; 31 g ai/ha): 0
- Sandbur plant response rating ([2]; 62 g ai/ha): 0
- Sandbur plant response rating ([2]; 125 g ai/ha): 0
- Sandbur plant response rating ([2]; 250 g ai/ha): 0
- Sandbur plant response rating ([2]; 500 g ai/ha): 0
- Plant response rating, Crabgrass, Brazil ([3]; 31 g ai/ha): 0
- Plant response rating, Crabgrass, Brazil ([3]; 62 g ai/ha): 0
- Plant response rating, Crabgrass, Brazil ([3]; 125 g ai/ha): 0
- Plant response rating, Crabgrass, Brazil ([3]; 250 g ai/ha): 0
- Plant response rating, Crabgrass, Brazil ([3]; 500 g ai/ha): 0
- Crabgrass, Brazil plant response rating ([3]; 31 g ai/ha): 0
- Crabgrass, Brazil plant response rating ([3]; 62 g ai/ha): 0
- Crabgrass, Brazil plant response rating ([3]; 125 g ai/ha): 0
- Crabgrass, Brazil plant response rating ([3]; 250 g ai/ha): 35
- Crabgrass, Brazil plant response rating ([3]; 500 g ai/ha): 65
- Plant response rating, Poinsettia, Wild ([4]; 31 g ai/ha): 0
- Plant response rating, Poinsettia, Wild ([4]; 62 g ai/ha): 0
- Plant response rating, Poinsettia, Wild ([4]; 125 g ai/ha): 0
- Plant response rating, Poinsettia, Wild ([4]; 250 g ai/ha): 10
- Plant response rating, Poinsettia, Wild ([4]; 500 g ai/ha): 15
- Poinsettia, Wild plant response rating ([4]; 31 g ai/ha): 0
- Poinsettia, Wild plant response rating ([4]; 62 g ai/ha): 0
- Poinsettia, Wild plant response rating ([4]; 125 g ai/ha): 0
- Poinsettia, Wild plant response rating ([4]; 250 g ai/ha): 0
- Poinsettia, Wild plant response rating ([4]; 500 g ai/ha): 0
- Plant response rating, Panicum, Fall ([5]; 31 g ai/ha): 0
- Plant response rating, Panicum, Fall ([5]; 62 g ai/ha): 0
- Plant response rating, Panicum, Fall ([5]; 125 g ai/ha): 0
- Plant response rating, Panicum, Fall ([5]; 250 g ai/ha): 0
- Plant response rating, Panicum, Fall ([5]; 500 g ai/ha): 0
- Panicum, Fall plant response rating ([5]; 31 g ai/ha): 0
- Panicum, Fall plant response rating ([5]; 62 g ai/ha): 0
- Panicum, Fall plant response rating ([5]; 125 g ai/ha): 0
- Panicum, Fall plant response rating ([5]; 250 g ai/ha): 0
- Panicum, Fall plant response rating ([5]; 500 g ai/ha): 0
- Plant response rating, Pigweed, Palmer ([6]; 31 g ai/ha): 50
- Plant response rating, Pigweed, Palmer ([6]; 62 g ai/ha): 70
- Plant response rating, Pigweed, Palmer ([6]; 125 g ai/ha): 70
- Plant response rating, Pigweed, Palmer ([6]; 250 g ai/ha): 80
- Plant response rating, Pigweed, Palmer ([6]; 500 g ai/ha): 90
- Pigweed, Palmer plant response rating ([6]; 31 g ai/ha): 0
- Pigweed, Palmer plant response rating ([6]; 62 g ai/ha): 0
- Pigweed, Palmer plant response rating ([6]; 125 g ai/ha): 0
- Pigweed, Palmer plant response rating ([6]; 250 g ai/ha): 25
- Pigweed, Palmer plant response rating ([6]; 500 g ai/ha): 100
- Plant response rating, Dayflower, VA ([7]; 31 g ai/ha): 0
- Plant response rating, Dayflower, VA ([7]; 62 g ai/ha): 0
- Plant response rating, Dayflower, VA ([7]; 125 g ai/ha): 0
- Plant response rating, Dayflower, VA ([7]; 250 g ai/ha): 0
- Plant response rating, Dayflower, VA ([7]; 500 g ai/ha): 0
- Dayflower, VA plant response rating ([7]; 31 g ai/ha): 0
- Dayflower, VA plant response rating ([7]; 62 g ai/ha): 0
- Dayflower, VA plant response rating ([7]; 125 g ai/ha): 0
- Dayflower, VA plant response rating ([7]; 250 g ai/ha): 0
- Dayflower, VA plant response rating ([7]; 500 g ai/ha): 0
- Plant response rating, Corn (corn (Zea mays); 31 g ai/ha): 0
- Plant response rating, Corn (corn (Zea mays); 62 g ai/ha): 0
- Plant response rating, Corn (corn (Zea mays); 125 g ai/ha): 0
- Plant response rating, Corn (corn (Zea mays); 250 g ai/ha): 0
- Plant response rating, Corn (corn (Zea mays); 500 g ai/ha): 0
- Corn plant response rating (corn (Zea mays); 31 g ai/ha): 0
- Corn plant response rating (corn (Zea mays); 62 g ai/ha): 0
- Corn plant response rating (corn (Zea mays); 125 g ai/ha): 0
- Corn plant response rating (corn (Zea mays); 250 g ai/ha): 0
- Corn plant response rating (corn (Zea mays); 500 g ai/ha): 0
- Plant response rating, Ryegrass, Italian ([8]; 31 g ai/ha): 0
- Plant response rating, Ryegrass, Italian ([8]; 62 g ai/ha): 0
- Plant response rating, Ryegrass, Italian ([8]; 125 g ai/ha): 0
- Plant response rating, Ryegrass, Italian ([8]; 250 g ai/ha): 0
- Plant response rating, Ryegrass, Italian ([8]; 500 g ai/ha): 0
- Ryegrass, Italian plant response rating ([8]; 31 g ai/ha): 0
- Ryegrass, Italian plant response rating ([8]; 62 g ai/ha): 0
- Ryegrass, Italian plant response rating ([8]; 125 g ai/ha): 0
- Ryegrass, Italian plant response rating ([8]; 250 g ai/ha): 10
- Ryegrass, Italian plant response rating ([8]; 500 g ai/ha): 20
- Plant response rating, Barnyardgrass ([9]; 31 g ai/ha): 0
- Plant response rating, Barnyardgrass ([9]; 62 g ai/ha): 0
- Plant response rating, Barnyardgrass ([9]; 125 g ai/ha): 0
- Plant response rating, Barnyardgrass ([9]; 250 g ai/ha): 0
- Plant response rating, Barnyardgrass ([9]; 500 g ai/ha): 0
- Barnyardgrass plant response rating ([9]; 31 g ai/ha): 0
- Barnyardgrass plant response rating ([9]; 62 g ai/ha): 0
- Barnyardgrass plant response rating ([9]; 125 g ai/ha): 0
- Barnyardgrass plant response rating ([9]; 250 g ai/ha): 0
- Barnyardgrass plant response rating ([9]; 500 g ai/ha): 0
- Plant response rating, Arrowleaf Sida ([10]; 31 g ai/ha, scale 0 to 100): 65
- Plant response rating, Arrowleaf Sida ([10]; 62 g ai/ha, scale 0 to 100): 60
- Plant response rating, Arrowleaf Sida ([10]; 125 g ai/ha, scale 0 to 100): 75
- Plant response rating, Arrowleaf Sida ([10]; 250 g ai/ha, scale 0 to 100): 85
- Plant response rating, Arrowleaf Sida ([10]; 500 g ai/ha, scale 0 to 100 (0 no effect, 100 complete control)): 90
- Arrowleaf Sida plant response rating ([10]; 31 g ai/ha, scale 0 to 100): 0
- Arrowleaf Sida plant response rating ([10]; 62 g ai/ha, scale 0 to 100): 20
- Arrowleaf Sida plant response rating ([10]; 125 g ai/ha, scale 0 to 100): 75
- Arrowleaf Sida plant response rating ([10]; 250 g ai/ha, scale 0 to 100): 90
- Arrowleaf Sida plant response rating ([10]; 500 g ai/ha, scale 0 to 100): 100
- Plant response rating, Beggarticks ([11]; 31 g ai/ha): 80
- Plant response rating, Beggarticks ([11]; 62 g ai/ha): 90
- Plant response rating, Beggarticks ([11]; 125 g ai/ha): 95
- Plant response rating, Beggarticks ([11]; 250 g ai/ha): 98
- Plant response rating, Beggarticks ([11]; 500 g ai/ha): 98
- Beggarticks plant response rating ([11]; 31 g ai/ha): 0
- Beggarticks plant response rating ([11]; 62 g ai/ha): 0
- Beggarticks plant response rating ([11]; 125 g ai/ha): 40
- Beggarticks plant response rating ([11]; 250 g ai/ha): 70
- Beggarticks plant response rating ([11]; 500 g ai/ha): 70

Reference: US10167262B2, “Herbicidal substituted 3-arylpyrazoles” (FMC CORPORATION, priority 2014, dated 2019)
